Assay results reported in ChEMBL document CHEMBL1201862, “PubChem BioAssay data set” (2004).
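The compound was tested at five concentrations on cells cultured in 96-well plates, with a 48-hour exposure period. Here, GI50 denotes the concentration required for 50% inhibition of growth.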 Calls of active or inactive are those of the source. No stated cut-off is given here; in the data, active = GI50 up to about 1.1 µM and inactive = higher.

Tests used:
Test in all cases: NCI-60 cell line screen, 48 h
A498 = tested on: A498
COLO 205 = tested on: COLO 205
ACHN = tested on: ACHN
SF-268 = tested on: SF-268
NCI-H460 = tested on: NCI-H460
SF-295 = tested on: SF-295
OVCAR-5 = tested on: OVCAR-5
U-251 = tested on: U-251
SW-620 = tested on: SW-620
RPMI-8226 = tested on: RPMI-8226
HT-29 = tested on: HT-29
MDA-N = tested on: MDA-N
NCI/ADR-RES = tested on: NCI/ADR-RES
MOLT-4 = tested on: MOLT-4
NCI-H522 = tested on: NCI-H522
HOP-62 = tested on: HOP-62
MCF7 = tested on: MCF7
SK-OV-3 = tested on: SK-OV-3
SF-539 = tested on: SF-539
TK-10 = tested on: TK-10
SR = tested on: SR
DU-145 = tested on: DU-145
OVCAR-8 = tested on: OVCAR-8
SNB-19 = tested on: SNB-19
HL-60 = tested on: HL-60
HOP-92 = tested on: HOP-92
K562 = tested on: K562
SN12C = tested on: SN12C
HCT-116 = tested on: HCT-116
NCI-H226 = tested on: NCI-H226
OVCAR-3 = tested on: OVCAR-3
KM12 = tested on: KM12
SK-MEL-5 = tested on: SK-MEL-5
CCRF-CEM = tested on: CCRF-CEM
SK-MEL-28 = tested on: SK-MEL-28
MDA-MB-435 = tested on: MDA-MB-435
LOX IMVI = tested on: LOX IMVI
A549 = tested on: A549
EKVX = tested on: EKVX
Hs-578T = tested on: Hs-578T
NCI-H23 = tested on: NCI-H23
HCT-15 = tested on: HCT-15
OVCAR-4 = tested on: OVCAR-4
T47D = tested on: T47D
UACC-62 = tested on: UACC-62
HCC 2998 = tested on: HCC 2998
IGROV-1 = tested on: IGROV-1
Malme-3M = tested on: Malme-3M
PC-3 = tested on: PC-3
786-0 = tested on: 786-0
UACC-257 = tested on: UACC-257
MDA-MB-231 = tested on: MDA-MB-231
UO-31 = tested on: UO-31
M14 = tested on: M14
SK-MEL-2 = tested on: SK-MEL-2
SNB-75 = tested on: SNB-75
CAKI-1 = tested on: CAKI-1

For CC(=O)OCCn1cnc2nc(Nc3ccccc3)nc(Cl)c21, the GI50 (A498) was > 100 µM (inactive), the GI50 (COLO 205) was 47.5 µM (inactive) and the GI50 (ACHN) was 42 µM (inactive). For the same compound, the GI50 (SF-268) was > 100 µM (inactive), the GI50 (NCI-H460) was 51.9 µM (inactive) and the GI50 (SF-295) was 82 µM (inactive). The GI50 (OVCAR-5) was > 100 µM (inactive), the GI50 (U-251) was 58.3 µM (inactive) and the GI50 (SW-620) was > 100 µM (inactive). The GI50 (RPMI-8226) was 89.5 µM (inactive), the GI50 (HT-29) was > 100 µM (inactive) and the GI50 (MDA-N) was 36.1 µM (inactive). For the same compound, the GI50 (NCI/ADR-RES) was 95.3 µM (inactive), the GI50 (MOLT-4) was 54.2 µM (inactive) and the GI50 (NCI-H522) was 84.9 µM (inactive). For the same compound, the GI50 (HOP-62) was > 100 µM (inactive), the GI50 (MCF7) was 46.8 µM (inactive) and the GI50 (SK-OV-3) was > 100 µM (inactive). The GI50 (SF-539) was > 100 µM (inactive), the GI50 (TK-10) was > 100 µM (inactive) and the GI50 (SR) was 54.8 µM (inactive). The GI50 (DU-145) was > 100 µM (inactive), the GI50 (OVCAR-8) was > 100 µM (inactive) and the GI50 (SNB-19) was > 100 µM (inactive). The GI50 (HL-60) was 47.8 µM (inactive), the GI50 (HOP-92) was 13.6 µM (inactive) and the GI50 (K562) was 49 µM (inactive). For the same compound, the GI50 (SN12C) was > 100 µM (inactive), the GI50 (HCT-116) was 71.1 µM (inactive) and the GI50 (NCI-H226) was > 100 µM (inactive). For the same compound, the GI50 (OVCAR-3) was > 100 µM (inactive), the GI50 (KM12) was 29.2 µM (inactive) and the GI50 (SK-MEL-5) was 60.8 µM (inactive). For the same compound, the GI50 (CCRF-CEM) was 69.2 µM (inactive), the GI50 (SK-MEL-28) was > 100 µM (inactive) and the GI50 (MDA-MB-435) was 25.1 µM (inactive). The GI50 (LOX IMVI) was 44.4 µM (inactive), the GI50 (A549) was > 100 µM (inactive) and the GI50 (EKVX) was > 100 µM (inactive). The GI50 (Hs-578T) was > 100 µM (inactive), the GI50 (NCI-H23) was > 100 µM (inactive) and the GI50 (HCT-15) was 45.4 µM. For the same compound, the GI50 (OVCAR-4) was 43.3 µM (inactive), the GI50 (T47D) was 40.7 µM (inactive) and the GI50 (UACC-62) was 44.1 µM (inactive). For the same compound, the GI50 (HCC 2998) was 74.5 µM (inactive), the GI50 (IGROV-1) was > 100 µM (inactive) and the GI50 (Malme-3M) was > 100 µM (inactive). The GI50 (PC-3) was 62.7 µM (inactive), the GI50 (786-0) was > 100 µM (inactive) and the GI50 (UACC-257) was 76.9 µM (inactive). For the same compound, the GI50 (MDA-MB-231) was 38.1 µM (inactive).

For COc1ccc(P2(=S)OC(C)(C)C(C)(C)O2)cc1, the GI50 (UO-31) was 17.5 µM (inactive), the GI50 (ACHN) was > 100 µM (inactive) and the GI50 (NCI-H460) was > 100 µM (inactive). For the same compound, the GI50 (SF-295) was > 100 µM (inactive), the GI50 (OVCAR-5) was > 100 µM (inactive) and the GI50 (U-251) was > 100 µM (inactive). For the same compound, the GI50 (SW-620) was > 100 µM (inactive), the GI50 (HT-29) was > 100 µM (inactive) and the GI50 (MDA-N) was > 100 µM (inactive). The GI50 (NCI/ADR-RES) was > 100 µM (inactive), the GI50 (MOLT-4) was > 100 µM (inactive) and the GI50 (M14) was > 100 µM (inactive). The GI50 (SK-MEL-2) was > 100 µM (inactive), the GI50 (NCI-H522) was > 100 µM (inactive) and the GI50 (HOP-62) was > 100 µM (inactive). The GI50 (MCF7) was > 100 µM (inactive), the GI50 (SNB-75) was > 100 µM (inactive) and the GI50 (SF-539) was > 100 µM (inactive). For the same compound, the GI50 (TK-10) was > 100 µM (inactive), the GI50 (SR) was > 100 µM (inactive) and the GI50 (CAKI-1) was 50.9 µM (inactive). The GI50 (DU-145) was > 100 µM (inactive), the GI50 (OVCAR-8) was > 100 µM (inactive) and the GI50 (SNB-19) was > 100 µM (inactive). The GI50 (HL-60) was > 100 µM (inactive), the GI50 (HOP-92) was > 100 µM (inactive) and the GI50 (K562) was > 100 µM (inactive). For the same compound, the GI50 (SN12C) was > 100 µM (inactive), the GI50 (HCT-116) was > 100 µM (inactive) and the GI50 (NCI-H226) was > 100 µM (inactive). For the same compound, the GI50 (OVCAR-3) was > 100 µM (inactive), the GI50 (KM12) was > 100 µM (inactive) and the GI50 (SK-MEL-5) was > 100 µM (inactive). For the same compound, the GI50 (CCRF-CEM) was > 100 µM (inactive), the GI50 (SK-MEL-28) was > 100 µM (inactive) and the GI50 (MDA-MB-435) was > 100 µM (inactive). The GI50 (LOX IMVI) was > 100 µM (inactive), the GI50 (A549) was > 100 µM (inactive) and the GI50 (EKVX) was > 100 µM (inactive). The GI50 (Hs-578T) was > 100 µM (inactive), the GI50 (NCI-H23) was > 100 µM (inactive) and the GI50 (HCT-15) was over 100 µM. For the same compound, the GI50 (OVCAR-4) was > 100 µM (inactive), the GI50 (T47D) was 6.93 µM (inactive) and the GI50 (UACC-62) was > 100 µM (inactive). For the same compound, the GI50 (IGROV-1) was > 100 µM (inactive), the GI50 (Malme-3M) was > 100 µM (inactive) and the GI50 (PC-3) was > 100 µM (inactive). For the same compound, the GI50 (786-0) was > 100 µM (inactive), the GI50 (UACC-257) was > 100 µM (inactive) and the GI50 (MDA-MB-231) was > 100 µM (inactive).
